Test results taken from patent US20220401514A1, “ANTIMICROBIAL, BACTERIOPHAGE-DERIVED POLYPEPTIDES AND THEIR USE AGAINST GRAM-NEGATIVE AND ACID-FAST BACTERIA” (CONTRAFECT CORPORATION, priority 2019, published 2022).
Converted amounts (≈) assume the structure as drawn.

Key:
[1] = test system: carbapenem-resistant bacterial strains; experiment: organism not typed; assay type: cell-based; conditions: carbapenem-resistant isolate PA23
Description: Determination of Minimal Inhibitory Concentrations (MIC).

[2] = test system: Acinetobacter baumannii strain 30; experiment: Checkerboard assay (FICI) with antibiotics, A. baumannii; assay type: cell-based; conditions: checkerboard
Procedure: (§1) Checkerboard assays. […] Checkerboards were constructed by first preparing columns of a 96-well polypropylene microtiter plate, in which each well had the same amount of antibiotic diluted 2-fold along the horizontal axis. […] Summation fractional inhibitory concentration index (FICIs) were calculated for each drug and the minimum FICI was used to determine synergy. FICIs were calculated as follows: FICI=FIC A+FIC B, where FIC A is the MIC of each antibiotic in the combination/MIC of the each antibiotic alone, and FIC B is the MIC of each Chp peptide in the combination/MIC of each Chp peptide alone. The combination is considered synergistic when the FICI is ≤0.5, strongly additive when the FICI is >0.5 to <1, additive with the FICI is 1-<2, and antagonistic when the FICI is ≥2.
The results are shown below in Tables 22-27.

[3] = test system: Stenotrophomonas-containing biofilm on explanted hemodialysis catheters; experiment: Antibiofilm activity in explanted hemodialysis catheters; assay type: cell-based, Stenotrophomonas spp.
Procedure: The explanted hemodialysis catheters were cut into equal length segments and bisected to expose the lumen.
The samples were treated for 4 hours at 37° C. before rinsing with Lactated Ringer's solution.
Three additional infected hemodialysis catheter samples were removed from two patients (one catheter from a first patient and two catheters from a second patient). […] The samples were incubated at 37° C. for 4 hours.

[4] = test system: Klebsiella pneumoniae strain 1139; experiment: Checkerboard assay (FICI) with antibiotics, K. pneumoniae; assay type: cell-based
Procedure: as §1

[5] = test system: P. aeruginosa strain CFS-1292; experiment: Checkerboard assay (FICI) with antibiotics, P. aeruginosa; assay type: cell-based, Pseudomonas aeruginosa; conditions: for Antibiotic FIC: P. aeruginosa CFS-1292; for Antibiotic MIC in checkerboard: P. aeruginosa CFS-1292, CAA + […] human serum
Procedure: Any known method to assess MIC may be used.
Checkerboards are constructed by first preparing columns of e.g., a 96-well polypropylene microtiter plate, wherein each well has the same amount of antibiotic diluted 2-fold along the horizontal axis. […] Bacteria are added to the drug combinations at concentrations of 1×10^5 […] in CAA, for example, with or without human serum or pulmonary surfactant. […] Summation fractional inhibitory concentrations (ΣFICs) are calculated for each drug and the minimum ΣFIC value (ΣFICmin) is used to determine the effect of the Chp peptide/antibiotic combination.
as §1
In the checkerboard assay, fractional inhibitory concentration index (FICI) values are calculated.

[6] = test system: P. aeruginosa strain PAO1; experiment: MIC against PAO1 in Mueller-Hinton broth with 50% human plasma or human serum; assay type: cell-based, Pseudomonas aeruginosa; conditions: PAO1
Klebsiella pneumoniae = experiment: microbe, parasite or virus in culture; assay type: cell-based; conditions: control agents of Table 8
Escherichia coli = experiment: microbe, parasite or virus in culture; assay type: cell-based; conditions: control agents of Table 8
Outline: (§2)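 Strains are exposed to peptide dilutions in CAA containing human serum, and the minimal inhibitory concentration is recorded.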

Enterobacter cloacae = experiment: microbe, parasite or virus in culture; assay type: cell-based; conditions: E. cloacae (CCUG 63317); control agents of Table 8
Outline: as §2

Acinetobacter baumannii = experiment: microbe, parasite or virus in culture; assay type: cell-based; conditions: A. baumanni (ATCC BAA-747); control agents of Table 8
Pseudomonas aeruginosa = experiment: microbe, parasite or virus in culture; assay type: cell-based; conditions: P. aeruginosa (ATCC 27853); control agents of Table 8
LPS = experiment: Endotoxin neutralization, limulus amoebocyte lysate (LAL) enzyme assay, LPS binding; assay type: biochemical; conditions: LPS 0.8 EU/mL
Procedure: CHEM. […] The standard reference samples contained only LPS dissolved in pyrogen-free water. Solutions were mixed well and incubated at 24° C. for 1 hour, and the manufacturers' test procedure for quantitative detection of endotoxins was followed.

[7] = test system: eight different strains of five species of Gram-negative bacteria; experiment: MBEC in eight strains of five species of Gram-negative bacteria; assay type: cell-based; conditions: 24 h biofilm in LB, 16 h treatment
Procedure: Determination of Minimal Biofilm Eradicating Concentrations (MBEC). […] The OD600 of extracted crystal violet was determined. The MBEC value of each sample was determined as the minimum drug concentration required to remove >95% of biofilm biomass as assessed by crystal violet quantitation (in comparison to untreated controls).
MBEC values were likewise determined for Chp2, Chp2-M1, and Chp10-M1 in eight different strains of five species of Gram-negative bacteria. […] The films were then washed and stained with crystal violet to visualize the MBEC.

[8] = checkerboard, in combination with Chp4-M1
[9] = checkerboard, in combination with Chp6-M1
[10] = checkerboard, in combination with Chp10-M1

C[C@@H](O)[C@H]1C(=O)N2C(C(=O)O)=C(S[C@@H]3CN[C@H](C(=O)N(C)C)C3)[C@H](C)[C@H]12 [meropenem, reference compound]
MIC [1]: 8 µg/mL (≈ 20.9 µM)
Antibiotic FIC ([2]; in combination with Chp2): 0.25
Antibiotic FIC ([2]; in combination with Chp2-M1): 0.25
Antibiotic FIC ([2]; in combination with Chp4-M1): 0.25
Antibiotic FIC ([2]; in combination with Chp6-M1): 0.25
Antibiotic FIC ([2]; in combination with Chp10-M1): 0.125
Antibiotic FIC ([2]; in combination with Unp2-M1): 0.25
eradication of biofilm on three additional catheter samples ([3]; Chp2-M1 1 μg/mL and 10 μg/mL, meropenem 1 μg/mL): did not eliminate biofilm
log10 CFU/g ([3]; second catheter sample from the second patient, 1 μg/mL, 4 hours): 3.16 log10 CFU/g
Antibiotic FIC [4, 8]: 0.125
Antibiotic MIC [4, 8]: 0.007812 µg/mL
Antibiotic FIC [4, 9]: 0.25
Antibiotic MIC [4, 9]: 0.01562 µg/mL
Antibiotic FIC [4, 10]: 0.125
Antibiotic MIC [4, 10]: 0.01562 µg/mL
Antibiotic FIC ([4]; checkerboard, in combination with Unp2-M1): 0.03125
Antibiotic FIC ([4]; combined with Chp2): 0.25
Antibiotic MIC in checkerboard ([4]; combined with Chp2): 0.01562 µg/mL
Antibiotic FIC ([4]; combined with Chp2-M1): 0.25
Antibiotic MIC in checkerboard ([4]; combined with Chp2-M1): 0.01562 µg/mL
Antibiotic FIC ([5]; combined with Chp2-M1): 0.25
Antibiotic MIC in checkerboard ([5]; combined with Chp2-M1): 4 µg/mL
Antibiotic FIC ([5]; combined with Chp2): 0.25
Antibiotic MIC in checkerboard ([5]; combined with Chp2): 4 µg/mL
Antibiotic FIC ([5]; combined with Chp4-M1): 0.25
Antibiotic MIC in checkerboard ([5]; combined with Chp4-M1): 4 µg/mL
Antibiotic FIC ([5]; combined with Chp6-M1): 0.25
Antibiotic MIC in checkerboard ([5]; combined with Chp6-M1): 4 µg/mL
Antibiotic FIC ([5]; combined with Chp10-M1): 0.25
Antibiotic MIC in checkerboard ([5]; combined with Chp10-M1): 2 µg/mL
Antibiotic FIC ([5]; combined with Unp2-M1): 0.25
Antibiotic MIC in checkerboard ([5]; combined with Unp2-M1): 4 µg/mL

daptomycin
eradication of catheter biofilm ([3]; first catheter sample, 4 hours at 37° C., Chp2-M1 10 μg/mL, CF-301 and daptomycin 1 μg/mL): did not
Log10 CFU/g for Catheter Sample #2 enumerated after 24 hours of incubation at 37 °C. ([3]; treatment at 1 μg/mL): 3.72 Log10 CFU/g
Log10 CFU/g for Catheter Sample #3 enumerated after 24 hours of incubation at 37 °C. ([3]; treatment at 1 μg/mL): 4.15 Log10 CFU/g
Log10 CFU/g for Catheter Sample #1 (enumerated after 18 hours of incubation at 37 °C.) ([3]; treatment at 1 μg/mL, 4 hours at 37° C.): 3.66 Log10 CFU/g

LL-37 [reference compound]
Minimal inhibitory concentration, Human Plasma ([6]; Mueller-Hinton broth with 50% human plasma): >64 µg/mL
Minimal inhibitory concentration, Human Serum ([6]; Mueller-Hinton broth with human serum): >64 µg/mL
MIC (in brackets beside MBEC) (Klebsiella pneumoniae; K. pneumoniae (ATCC 700603)): (16) μg/mL
MIC (in brackets beside MBEC) (Klebsiella pneumoniae; K. pneumoniae (KP1)): (16) μg/mL
MIC (in brackets beside MBEC) (Escherichia coli; E. coli (ATCC 25922)): (16) μg/mL
MIC (in brackets beside MBEC) (Escherichia coli; E. coli (ATCC 35329)): (16) μg/mL
MIC (in brackets beside MBEC) (Escherichia coli; E. coli (EC2)): (16) μg/mL
MIC (in brackets beside MBEC) (Enterobacter cloacae): (16) μg/mL
MIC (in brackets beside MBEC) (Acinetobacter baumannii): (16) μg/mL
MIC (in brackets beside MBEC) (Pseudomonas aeruginosa): (16) μg/mL
LPS binding (LPS; […]-64 μg/mL, 24° C., 1 hour): dose-dependent increases in LPS binding
% LPS Bound (LPS; peptide concentration 0.5 μg/mL): 90.6%
% LPS Bound (LPS; peptide concentration 1 μg/mL): 92.2%
% LPS Bound (LPS; peptide concentration 2 μg/mL): 92.9%
% LPS Bound (LPS; peptide concentration 4 μg/mL): 92.3%
% LPS Bound (LPS; peptide concentration 8 μg/mL): 92.4%
% LPS Bound (LPS; peptide concentration 16 μg/mL): 92.1%
% LPS Bound (LPS; peptide concentration 32 μg/mL): 87.3%
% LPS Bound (LPS; peptide concentration 64 μg/mL): 75.4%
MBEC ([7]; A. baumanni (ATCC BAA-747)): 0.25 µg/mL
MBEC ([7]; E. cloacae (CCUG 63317)): 8 µg/mL
MBEC ([7]; E. coli (ATCC 25922)): 16 µg/mL
MBEC ([7]; E. coli (ATCC 35329)): 16 µg/mL
MBEC ([7]; E. coli (EC2)): 8 µg/mL
MBEC ([7]; K. pneumoniae (ATCC 700603)): 32 µg/mL
MBEC ([7]; K. pneumoniae (KP1)): 16 µg/mL
MBEC ([7]; P. aeruginosa (ATCC 27853)): 8 µg/mL
